The values that follow come from PMC8878721, “Screening of TNFR1 Binding Peptides from Deinagkistrodon acutus Venom through Phage Display” (Toxins, 2022).

A short description of data set [1]: Dissolution test of DAvp-1. It counts as physicochemical. The method, then: DAvp-1, which appeared in the white lyophilized powder, was synthesized following the solid phase peptide synthesis (SPPS) Fmoc protocol, and Mass Spectrometer (MS) and HPLC were used for quantitative and qualitative verification. A purity of 95.346% was determined with the HPLC methodology (Figure 3A). The mass-to-charge ratios of [M+8H]^8+, [M+7H]^7+, [M+6H]^6+, and [M+5H]^5+ were 594.5, 679.3, 792.3, and 950.5, respectively, and the highest peak of [M+5H]^5+ was selected to calculate the molecular weight (MW). The formula is (1) MW=m/z×C−C(1) where MW is the molecular weight, m/z is the mass-to-charge ratio, and C is the charge.
Homologous modeling has been developed for predicting the 3D structure of proteins and peptides originating from various organisms, and this most accurate modeling method was widely used in structural biology. Software simulations were applied to test if there was a positive interaction with TNFR1 [37]. […] A promising solubility is conducive to the development of drugs.

Data set [2] has as its system pro-inflammatory cytokines. The following applies: snake venom extracts; ref [2],[3],[4]; cited from earlier work. The source says:
Snake venoms have been used as traditional Chinese medicines for hundreds of years, and they have a positive effect on autoimmune inflammatory diseases such as rheumatoid arthritis. However, their active, effective ingredients and their mechanisms of action are not fully understood yet. Studies have shown that snake venom is a mixture of proteins and peptides with various biological activities, including anti-tumor, anti-inflammatory, anti-stroke, and analgesic activities. For example, snake venom extracts such as Cathelicidin-BF and Cathelicidin-CATH can inhibit pro-inflammatory cytokin ...

Consider `CSCC[C@H](NC(=O)[C@H](CCCNC(=N)N)NC(=O)CNC(=O)[C@H](CCCNC(=N)N)NC(=O)[C@H](CC(C)C)NC(=O)[C@@H](NC(=O)[C@H](CC(C)C)NC(=O)[C@H](CO)NC(=O)[C@@H](N)CC(N)=O)C(C)C)C(=O)N[C@@H](CCCNC(=N)N)C(=O)N[C@@H](CC(=O)O)C(=O)N[C@H](C(=O)N[C@@H](CCCCN)C(=O)N[C@H](C(=O)N[C@@H](CCCNC(=N)N)C(=O)N[C@@H](CC(=O)O)C(=O)N[C@@H](CC(=O)O)C(=O)NCC(=O)N[C@@H](CCCNC(=N)N)C(=O)N[C@@H](CCCCN)C(=O)N[C@@H](CO)C(=O)N1CCC[C@H]1C(=O)N[C@@H](CO)C(=O)N[C@@H](Cc1c[nH]cn1)C(=O)N[C@@H](Cc1c[nH]cn1)C(=O)N[C@@H](CO)C(=O)N[C@@H](CCCCN)C(=O)N[C@@H](Cc1ccccc1)C(=O)N[C@@H](CO)C(=O)NCC(=O)NCC(=O)N[C@H](C(=O)N[C@@H](CCCNC(=N)N)C(=O)N[C@@H](CC(N)=O)C(=O)N[C@@H](Cc1c[nH]c2ccccc12)C(=O)N[C@@H](CCC(N)=O)C(=O)N[C@@H](CCCCN)C(=O)N[C@@H](CC(C)C)C(=O)N[C@H](C(=O)N[C@@H](CCCCN)C(=O)N[C@@H](CC(C)C)C(=O)O)C(C)C)[C@@H](C)O)C(C)C)C(C)C` [DAvp-1], for which the “solubility in PBS” value in data set [1] (1 × phosphate buffer saline (PBS) (pH 7.1), lyophilized powder, qualitative) is on record as “could be dissolved”. Further, in data set [1] (dimethyl sulfoxide (DMSO), lyophilized powder, qualitative), the “solubility in DMSO” value was “could be dissolved”. In data set [1] (dissolution test, in words), the “solubility (overall)” value is on record as “good solubility”. Also, the “solubility in ultrapure water” value in data set [1] (ultrapure water, lyophilized powder, qualitative) was “could be dissolved”.
In the case of Cathelicidin-BF, the “effect on pro-inflammatory cytokines” value in data set [2] is recorded as “can inhibit pro-inflammatory cytokines”.
